Assay results: ChEMBL document CHEMBL1201862, “PubChem BioAssay data set” (2004)
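Tested at 5 concentrations; 48 h exposure; 96-well plates; endpoints linearly interpolated, else capped at highest concentration. Abbreviation: GI50, concentration required for 50% inhibition of growth.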 Activity calls are given as the source filed them. Rule as the data show it: active = GI50 up to about 1.1 µM and inactive = higher.

Tests used:
Assay in all cases: NCI-60 cell line screen, 48 h
[1] = tested on: HT-29
[2] = tested on: SNB-19
[3] = tested on: MOLT-4
[4] = tested on: M14
[5] = tested on: SF-539
[6] = tested on: SN12C
[7] = tested on: COLO 205
[8] = tested on: T47D
[9] = tested on: K562
[10] = tested on: OVCAR-5
[11] = tested on: 786-0
[12] = tested on: A549
[13] = tested on: OVCAR-4
[14] = tested on: HL-60
[15] = tested on: HCC 2998
[16] = tested on: EKVX
[17] = tested on: IGROV-1
[18] = tested on: UACC-62
[19] = tested on: SNB-75
[20] = tested on: Malme-3M

Measured: GI50

COc1cc2c(C)cc(O)cc2c2cc(O)c(C)cc12
inactive: [1] 14.7 µM | [2] 11.5 µM | [3] 5.83 µM | [4] 1.94 µM | [5] 9.14 µM | [6] 9.84 µM | [7] 9.91 µM | [8] 10.1 µM | [9] 2.48 µM | [10] 13.7 µM | [11] 8.43 µM | [12] 12.9 µM | [13] 11.3 µM | [14] 2.96 µM | [15] 13.5 µM | [16] 11.7 µM | [17] 14.1 µM | [18] 12 µM

COC(=O)CCn1cnc2c(SC)ncnc21
inactive: [1] > 100 µM | [2] > 100 µM | [3] > 100 µM | [4] > 100 µM | [5] > 100 µM | [6] > 100 µM | [7] > 100 µM | [8] > 100 µM | [9] > 100 µM | [10] > 100 µM | [11] > 100 µM | [12] > 100 µM | [13] > 100 µM | [14] > 100 µM | [19] > 100 µM | [16] > 100 µM | [20] > 100 µM | [17] > 100 µM | [18] > 100 µM

O=C(N/N=C/c1ccccc1)c1cccc2nc3ccccc3nc12
inactive: [1] 46.3 µM | [2] > 73.1 µM | [3] > 100 µM | [4] 35 µM | [5] > 100 µM | [6] > 87.9 µM | [7] 4.08 µM | [8] > 100 µM | [9] > 100 µM | [10] > 100 µM | [11] > 100 µM | [12] 3.81 µM | [13] > 100 µM | [14] > 100 µM | [19] > 100 µM | [16] > 39.3 µM | [20] > 100 µM | [17] 63.5 µM | [18] > 100 µM

COc1cc(C2c3c(ccc4ccccc34)C(=O)C3CCC(=O)N32)cc(OC)c1O (configuration not stated)
inactive: [1] > 25 µM | [2] > 25 µM | [3] > 25 µM | [4] > 25 µM | [5] > 25 µM | [6] > 25 µM | [7] > 25 µM | [8] > 25 µM | [9] > 25 µM | [10] > 25 µM | [11] > 25 µM | [12] > 25 µM | [13] > 25 µM | [14] > 25 µM | [19] > 25 µM | [16] > 25 µM | [17] > 25 µM | [18] > 25 µM

O=C(O)CNC(=O)C1NC(C(F)(F)F)(C(F)(F)F)OC1(C(F)(F)F)C(F)(F)F (configuration not stated)
inactive: [1] > 100 µM | [2] > 100 µM | [3] > 100 µM | [4] > 100 µM | [5] > 100 µM | [6] > 100 µM | [7] > 100 µM | [8] > 100 µM | [9] > 100 µM | [10] > 100 µM | [11] > 100 µM | [12] > 100 µM | [13] > 100 µM | [14] > 100 µM | [19] > 100 µM | [16] > 100 µM | [20] > 100 µM | [17] > 100 µM | [18] > 100 µM

COc1ccccc1N1CCN(S(=O)(=O)c2ccc(Cl)cc2)C1=N
inactive: [2] 51.3 µM | [3] 43 µM | [4] 26.2 µM | [5] 81.3 µM | [6] > 100 µM | [7] 73.6 µM | [8] 68.7 µM | [9] 61.7 µM | [10] 22.4 µM | [11] 99.5 µM | [12] 34.2 µM | [13] 87.9 µM | [19] > 100 µM | [16] 26.9 µM | [18] 26.3 µM

N=C(N)NC(=N)Nc1c(F)c(F)c(F)c(F)c1F
inactive: [1] 96.8 µM | [2] > 100 µM | [4] 21.1 µM | [5] > 100 µM | [6] > 100 µM | [7] 54 µM | [8] 61.8 µM | [9] 41.5 µM | [10] > 100 µM | [11] > 100 µM | [12] > 100 µM | [13] > 100 µM | [19] > 100 µM | [16] 44.1 µM | [20] 69 µM | [17] > 100 µM | [18] > 100 µM

CCC1c2[nH]c3ccccc3c2C[C@H]2C(=O)N3CCC[C@H]3C(=O)N12 (some centres not stated)
inactive: [1] > 100 µM | [2] > 100 µM | [3] 97.7 µM | [4] > 100 µM | [6] > 100 µM | [7] > 100 µM | [8] 67.8 µM | [9] > 100 µM | [10] > 100 µM | [11] > 100 µM | [12] > 100 µM | [13] > 100 µM | [14] > 100 µM | [15] > 100 µM | [16] > 100 µM | [20] 42.5 µM | [17] > 100 µM | [18] 70.6 µM

CCCC1(N2C(=O)c3ccc4c5c(ccc(c35)C2=O)N(C2(CCC)CCCCC2)C4=O)CCCCC1
inactive: [1] > 100 µM | [2] > 100 µM | [3] > 100 µM | [4] > 100 µM | [5] > 100 µM | [6] > 100 µM | [7] > 100 µM | [8] > 100 µM | [9] > 100 µM | [10] > 100 µM | [11] > 100 µM | [12] > 100 µM | [13] > 100 µM | [15] > 100 µM | [20] > 100 µM | [18] > 100 µM

O=C(O)C(C1NCCS1)N1Cc2ccccc2C1 (configuration not stated)
inactive: [1] > 100 µM | [2] > 100 µM | [3] > 100 µM | [4] > 100 µM | [5] > 100 µM | [6] > 100 µM | [7] > 100 µM | [8] > 100 µM | [9] > 100 µM | [10] > 100 µM | [11] > 100 µM | [12] > 100 µM | [13] > 100 µM | [14] > 100 µM | [19] > 100 µM | [16] > 100 µM | [20] > 100 µM | [17] > 100 µM | [18] > 100 µM

O=C1C(CN2CCCCC2)CCCC1CN1CCCCC1 (configuration not stated)
inactive: [1] 20.1 µM | [4] 20.7 µM | [5] 30.2 µM | [6] 32.7 µM | [8] 1.64 µM | [10] > 55.6 µM | [11] 8.26 µM | [12] > 92 µM | [13] 14.4 µM | [15] 51.3 µM | [16] 16.2 µM | [20] 8.07 µM | [17] > 56.2 µM | [18] > 55.7 µM
